Source: patent US20240287070A1, “FUSED HETEROCYCLIC DERIVATIVES” (Janssen Sciences Ireland Unlimited Company, priority 2021, published 2024)

Legend:
[1] = Human liver microsome stability; format: in vitro ADME; settings: 1 μM compound, NADPH 1 mM, 37° C., 0-60 min; for half-life at 1 μM: human, pooled human liver microsomes, pH 7.4, pooled human liver microsomes 0.5 mg/mL, read-out: HLM Metabolism t1/2; for HLM Metabolism t1/2: pooled human liver microsomes 0.5 mg/mL
Experimental: Human Liver Microsome Stability t½ (Min) of Compounds of Formula (I) […] All incubations are performed singularly for each compound. NADPH was added to initiate the reaction with the final concentration of 1 mM and the final incubation volume of 400 μL. At 6 time points (0, 5, 10, 20, 40 and 60 min) reactions were stopped by the removal of 50 μL of the incubation mixture into plates containing acetonitrile at a of 1:3 (v:v). The plates were centrifuged at 3000 rpm for 10 min at 4° C. to precipitate the protein. Following protein precipitation, the sample supernatants were combined in cassettes of up to 8 compounds. The internal standard was added (1:1 supernatant to internal standard solution) and samples were analyzed using standard LC-MS conditions. From a plot of ln peak area ratio (compound peak area/internal standard peak area) against time, the gradient of the line is determined. Subsequently, half-life is calculated using the equations below: Elimination rate constant (k)=(−gradient) […]

[2] = test system: HBV (HepG2.117 cell line, inducibly HBV producing); assay: Anti-HBV activity, intracellular HBV DNA by real-time PCR in HepG2.117 cell line; format: cell-based, hepatitis B virus; settings: HepG2.117 cells, 3 days of treatment
Experimental: The anti HBV activity was measured using the HepG2.117 cell line, a stable, inducibly HBV producing cell line, which replicates HBV in the absence of doxycycline (Tet-off system). The HepG2 cell line is available from ATCCR under number HB-8065. Transfection of the HepG2 cell line can be as described in Sun and Nassal 2006 Journal of Hepatology 45 (2006) 636-645 “Stable HepG2- and Huh7-based human hepatoma cell lines for efficient regulated expression of infectious hepatitis B virus”.
For the antiviral assay, HBV replication was induced, followed by a treatment with serially diluted compound in 96-well plates. After 3 days of treatment, the antiviral activity was determined by quantification of intracellular HBV DNA using real-time PCR and an HBV specific primer set and probe.

[3] = Cytotoxicity, ATPlite Luminescence Assay; format: cell-based, human; settings: human, HepG2 or HepG2.117 cells, 3-days incubation unless marked with *
Experimental: Cytotoxicity of the compounds was tested using HepG2 or HepG2.117 cells, incubated for 3 or 4 days in the presence of compounds. The viability of the cells was assessed using the PERKIN ELMER ATPlite Luminescence Assay System.”

[4] = Hepatitis B virus, HepG2.117, 72 h

Row | SMILES | half-life at 1 μM [1] [h] | EC50 [2, 4] [µM] | CC50 at 3 days [3] [µM] | EC50 [2] [µM] | HLM Metabolism t1/2 [1] [h]
1 | CC(c1cc(F)c(=O)n(C)c1)N1C[C@@H](C)n2nc3c(c2C1=O)CN(C(=O)c1ccc(Cl)c(Cl)c1)[C@H](C)C3 (single isomer, unassigned) [Compound 45B, (3R,7R)-2-(3,4-dichlorobenzoyl)-9-((S*)-1-(5-fluoro-1-methyl-6-oxo-1,6-dihydropyridin-3-yl)ethyl)-3,7-dimethyl-1,2,3,4,8,9-hexahydropyrido[4′,3′:3,4]pyrazolo [1,5-a]pyrazin-10(7H)-one] | > 3 | 0.027 | > 50 | – | –
2 | CC(c1cnn(C2CC2)c(=O)c1)N1C[C@@H](C)n2nc3c(c2C1=O)CN(C(=O)c1ccc(Cl)c(C(F)(F)F)c1)[C@H](C)C3 (single isomer, unassigned) [Compound 54A, (3R,7R)-2-(4-chloro-3-(trifluoromethyl)benzoyl)-9-((R*)-1-(1-cyclopropyl-6-oxo-1,6-dihydropyridazin-4-yl)ethyl)-3,7-dimethyl-1,2,3,4,8,9-hexahydropyrido[4′,3′: 3,4]pyrazolo[1,5-a]pyrazin-10(7H)-one] | 1.29 | – | > 50 | 0.16 | –
3 | CNC(=O)C(c1ccc(OC(F)F)cc1)N1C[C@@H](C)n2nc3c(c2C1=O)CN(C(=O)c1ccc(Cl)c(Cl)c1)[C@H](C)C3 (single isomer, unassigned) [Compound 23A, (R*)-2-((3R,7R)-2-(3,4-dichlorobenzoyl)-3,7-dimethyl-10-oxo-1,3,4,7,8,10-hexahydropyrido[4′,3′:3,4]pyrazolo[1,5-a]pyrazin-9(2H)-yl)-2-(4-(difluoromethoxy)phenyl)-N-methylacetamide] | 1.88 | – | 32.1 | 0.066 | –
4 | CC(c1ccc(-c2ccn(C)n2)cc1)N1C[C@@H](C)n2nc3c(c2C1=O)CN(C(=O)c1ccc(Cl)c(C#N)c1)[C@H](C)C3 (single isomer, unassigned) [Compound 21A, 2-Chloro-5-((3R,7R)-3,7-dimethyl-9-((R*)-1-(4-(1-methyl-1H-pyrazol-3-yl)phenyl)ethyl)-10-oxo-1,2,3,4,7,8,9,10-octahydropyrido[4′,3′:3,4]pyrazolo[1,5-a]pyrazine-2-carbonyl)benzonitrile] | – | – | > 50 | 0.035 | 0.98
5 | CC(c1cnn(C(C)C)c(=O)c1)N1C[C@@H](C)n2nc3c(c2C1=O)CN(C(=O)c1ccc(Cl)c(C(F)(F)F)c1)[C@H](C)C3 (single isomer, unassigned) [Compound 53A, (3R,7R)-2-(4-chloro-3-(trifluoromethyl)benzoyl)-9-((R*)-1-(1-isopropyl-6-oxo-1,6-dihydropyridazin-4-yl)ethyl)-3,7-dimethyl-1,2,3,4,8,9-hexahydropyrido[4′,3′:3,4]pyrazolo[1,5-a]pyrazin-10(7H)-one] | 1.85 | – | > 50 | 0.24 | –
6 | C[C@@H]1Cc2nn3c(c2CN1C(=O)c1ccc(Cl)c(C#N)c1)C(=O)N([C@H](C)c1ccc(OC(F)F)cc1)C[C@@H]3C (relative stereo) [Compound 1A, 2-Chloro-5-((3R,7S*)-9-((R*)-1-(4-(difluoromethoxy)phenyl)ethyl)-3,7-dimethyl-10-oxo-1,2,3,4,7,8,9,10-octahydropyrido[4′,3′:3,4]pyrazolo[1,5-a]pyrazine-2-carbonyl)benzonitrile] | 0.235 | 0.21 | > 50 | – | –
7 | CC(c1ccnc(OC(F)F)c1)N1C[C@@H](C)n2nc3c(c2C1=O)CN(C(=O)c1ccc(Cl)c(C(F)(F)F)c1)[C@H](C)C3 (single isomer, unassigned) [Compound 50A, (3R,7R)-2-(4-chloro-3-(trifluoromethyl)benzoyl)-9-((R*)-1-(2-(difluoromethoxy)pyridin-4-yl)ethyl)-3,7-dimethyl-1,2,3,4,8,9-hexahydropyrido[4′,3′:3,4]pyrazolo[1,5-a]pyrazin-10(7H)-one] | > 3 | – | 12.5 | 0.066 | –
8 | Cc1nnnn1-c1ccc(C(C)N2C[C@@H](C)n3nc4c(c3C2=O)CN(C(=O)c2ccc(Cl)c(Cl)c2)[C@H](C)C4)cn1 (single isomer, unassigned) [Compound 27A, (3R,7R)-2-(3,4-dichlorobenzoyl)-3,7-dimethyl-9-((R*)-1-(6-(5-methyl-1H-tetrazol-1-yl)pyridin-3-yl)ethyl)-1,2,3,4,8,9-hexahydropyrido[4′,3′:3,4]pyrazolo[1,5-a]pyrazin-10(7H)-one] | – | – | > 50 | 0.24 | >3
9 | CN=[S@](C)(=O)c1ccc([C@H](C)N2C[C@@H](C)n3nc4c(c3C2=O)CN(C(=O)c2ccc(Cl)c(Cl)c2)[C@H](C)C4)cn1 (relative stereo) [Compound 29C, (3R,7R)-2-(3,4-dichlorobenzoyl)-9-((S*)-1-(6-((R*)—N,S-dimethylsulfonimidoyl)pyridin-3-yl)ethyl)-3,7-dimethyl-1,2,3,4,8,9-hexahydropyrido[4′,3′:3,4]pyrazolo[1,5-a]pyrazin-10(7H)-one] | 1.43 | 0.051 | > 50 | – | –
10 | CC(c1ccc(N2CCCC2=O)cc1)N1C[C@@H](C)n2nc3c(c2C1=O)CN(C(=O)c1ccc(Cl)c(C#N)c1)[C@H](C)C3 (single isomer, unassigned) [Compound 9A, 2-Chloro-5-((3R,7R)-3,7-Dimethyl-10-oxo-9-((R*)-1-(4-(2-oxopyrrolidin-1-yl)phenyl)ethyl)-1,2,3,4,7,8,9,10-octahydropyrido[4′,3′:3,4]pyrazolo[1,5-a]pyrazine-2-carbonyl)benzonitrile] | – | 0.022 | > 50 | – | 0.84
11 | CC(c1ncccn1)N1C[C@@H](C)n2nc3c(c2C1=O)CN(C(=O)c1ccc(Cl)c(Cl)c1)[C@H](C)C3 (single isomer, unassigned) [Compound 39A, (3R,7R)-2-(3,4-dichlorobenzoyl)-3,7-dimethyl-9-((R*)-1-(pyrimidin-2-yl)ethyl)-1,2,3,4,8,9-hexahydropyrido[4′,3′:3,4]pyrazolo[1,5-a]pyrazin-10(7H)-one] | 1.59 | – | > 50 | 0.13 | –
12 | CNS(=O)(=O)c1ccc(C(C)N2C[C@@H](C)n3nc4c(c3C2=O)CN(C(=O)c2ccc(Cl)c(Cl)c2)[C@H](C)C4)cc1 (single isomer, unassigned) [Compound 17A, 4-((R*)-1-((3R,7R)-2-(3,4-dichlorobenzoyl)-3,7-dimethyl-10-oxo-1,3,4,7,8,10-hexahydropyrido[4′,3′:3,4]pyrazolo[1,5-a]pyrazin-9(2H)-yl)ethyl)-N-methylbenzenesulfonamide] | 2.9 | – | > 50 | 0.077 | –
13 | Cc1nnc(C(C)N2C[C@@H](C)n3nc4c(c3C2=O)CN(C(=O)c2ccc(Cl)c(Cl)c2)[C@H](C)C4)o1 (single isomer, unassigned) [Compound 43A, (3R,7R)-2-(3,4-dichlorobenzoyl)-3,7-dimethyl-9-((R*)-1-(5-methyl-1,3,4-oxadiazol-2-yl)ethyl)-1,2,3,4,8,9-hexahydropyrido[4′,3′:3,4]pyrazolo[1,5-a]pyrazin-10(7H)-one] | > 3 | – | > 50 | 0.31 | –
14 | C[C@@H]1Cc2nn3c(c2CN1C(=O)c1ccc(Cl)c(C#N)c1)C(=O)N([C@@H](C)c1ccc(OC(F)F)cc1)CC3 [Ref 2, reference compound] | 0.63 | 0.03 | > 50 | – | –
15 | CC(c1ccc(S(N)(=O)=O)cc1)N1C[C@@H](C)n2nc3c(c2C1=O)CN(C(=O)c1ccc(Cl)c(Cl)c1)[C@H](C)C3 (single isomer, unassigned) [Compound 16A, 4-((R*)-1-((3R,7R)-2-(3,4-dichlorobenzoyl)-3,7-dimethyl-10-oxo-1,2,3,4,7,8-hexahydropyrido[4′,3′:3,4]pyrazolo[1,5-a]pyrazin-9(10H)-yl)ethyl)benzenesulfonamide] | > 3 | 0.061 | > 50 | – | –
16 | CC(c1ncc(C(F)(F)F)cn1)N1C[C@@H](C)n2nc3c(c2C1=O)CN(C(=O)c1ccc(Cl)c(Cl)c1)[C@H](C)C3 (single isomer, unassigned) [Compound 40A, (3R,7R)-2-(3,4-dichlorobenzoyl)-3,7-dimethyl-9-((R*)-1-(5-(trifluoromethyl)pyrimidin-2-yl)ethyl)-1,2,3,4,8,9-hexahydropyrido[4′,3′:3,4]pyrazolo[1,5-a]pyrazin-10(7H)-one] | > 3 | – | 22 | 0.054 | –
